Laboratory results as given in the NIST ThermoML archive (doi:10.1016/j.jct.2010.02.009).

Assays:
[1] = refractive index (other wavelength) (dimensionless); settings: 101 kPa, Liquid, Wavelength=632.8 nm, Standard Abbe refractometry
[2] = refractive index (other wavelength) (dimensionless); xn = mol fraction of the nth substance listed; settings: 101 kPa, Liquid, Wavelength=632.8 nm, Standard Abbe refractometry, x2 = 0

CCCCCCCCC [nonane]
[1]
Settings	refractive index
278.08 K	1.4111
279.19 K	1.4106
280.4 K	1.4101
281.48 K	1.4095
282.59 K	1.409
283.65 K	1.4085
284.91 K	1.4079

N#Cc1ccccc1 [benzonitrile]
[1]
Settings	refractive index
278.24 K	1.5324
279.25 K	1.5319
281.33 K	1.5308
282.96 K	1.5301
284.3 K	1.5294
285.43 K	1.5288

CCCCCCCCC [nonane] + N#Cc1ccccc1
[2]
Settings	refractive index
278.08 K	1.4111
279.19 K	1.4106
280.4 K	1.4101
281.48 K	1.4095
282.59 K	1.409
283.65 K	1.4085
284.91 K	1.4079
